For this assay, the target named is VP35 (EBOV VP35) (Ebola virus - Mayinga, Zaire, 1976, UniProt Q05127). The experiment in a line: biochemical. In kind it is binding.

The structures appear in SMILES notation. pKd: −log10 of the molar value.

VP35 (EBOV VP35), sequence (Q05127 whole entry, looked up): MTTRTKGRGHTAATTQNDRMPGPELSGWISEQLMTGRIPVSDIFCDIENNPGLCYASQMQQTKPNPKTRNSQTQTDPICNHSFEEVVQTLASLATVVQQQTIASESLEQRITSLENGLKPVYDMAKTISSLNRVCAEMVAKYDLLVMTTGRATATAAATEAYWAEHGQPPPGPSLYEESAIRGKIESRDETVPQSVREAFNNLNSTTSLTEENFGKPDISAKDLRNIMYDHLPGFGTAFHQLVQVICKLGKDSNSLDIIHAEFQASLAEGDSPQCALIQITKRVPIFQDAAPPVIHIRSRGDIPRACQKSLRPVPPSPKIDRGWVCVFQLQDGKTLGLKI

As to `Cc1oc(C)c(S(N)(=O)=O)c1C(=O)O` [SFC, 2,5-Dimethyl-4-sulfamoyl furan-3-carboxylic acid], the pKd was about 6.43.

Broadly, the pKd is the Kd on a negative log10 scale, so that one unit is a factor of ten. Low values mean a high Kd, high ones a low Kd.
